Data from ChEMBL document CHEMBL3714766, “Tetrahydroisoquinoline compounds and their use as pyruvate dehydrogenase kinase inhibitors” (2015).

Biological target: Pyruvate dehydrogenase kinase (Homo sapiens, UniProt Q15119+Q15120+Q16654+Q15118)
Assay: Binding affinity to pyruvate dehydrogenase kinase (unknown origin) by VER-00160364 probe based fluorescence polarization assay

SMILES | IC50 [nM]
O=C(c1ccc(O)cc1O)N1CCCc2cc(F)ccc21 | 100
Cc1cnc(C)c(-c2ccc3c(c2)CCC(c2cccnc2)N3C(=O)c2ccc(O)cc2O)n1 (stereo not given) | 10
COc1cnc(Cl)nc1-c1ccc2c(c1)CCC(c1cccnc1)N2C(=O)c1ccc(O)cc1O (stereo not given) | 1000
CC1CCc2cc(C(=O)N(C)c3cccc(F)c3)ccc2N1C(=O)c1ccc(O)cc1O (stereo not given) | 100
CC1CCc2cc(C(=O)N(C)CC(F)(F)F)ccc2N1C(=O)c1cc(Cl)c(O)cc1O (stereo not given) | 100
COCCN(C)S(=O)(=O)c1cnc(-c2ccc3c(c2)CC[C@H](C)N3C(=O)c2ccc(O)cc2O)c(C)c1 | 100
CC1CCc2cc(C(=O)N(C)Cc3nc4ccccc4n3C)ccc2N1C(=O)c1ccc(O)cc1O (stereo not given) | 100
CC1CCc2cc(F)ccc2N1C(=O)c1ccc(O)cc1O (stereo not given) | 100
Cc1cnc(Cl)nc1-c1ccc2c(c1)CC[C@H](C)C2C(=O)c1ccc(O)cc1O (stereo not given in full) | 10
Cc1cc(S(=O)(=O)NCc2cccnc2)cnc1-c1ccc2c(c1)CC[C@H](C)N2C(=O)c1ccc(O)cc1O | 10
CC1CCc2cc(C(=O)N(C)Cc3ccc(Cl)cc3)ccc2N1C(=O)c1ccc(O)cc1O (stereo not given) | 10
COc1ccc(CN(C)C(=O)c2ccc3c(c2)CC[C@@H](C)N3C(=O)c2ccc(O)cc2O)cc1 | 10000
C[C@H]1CCc2cc(C(=O)N(C)Cc3ccc(F)cc3)ccc2N1C(=O)c1ccc(O)cc1O | 100
CN(C)C(=O)c1ccc2c(c1)CCCN2C(=O)c1ccc(O)cc1O | 100
CC1CCc2cc(Br)ccc2N1C(=O)c1ccc(O)cc1O (stereo not given) | 1000
CC1CCc2cc(C(=O)N(C)Cc3ccc(F)cc3)ccc2N1C(=O)c1ccc(O)cc1O (stereo not given) | 10
CC1CCc2cc(C(=O)N3CCC3)ccc2N1C(=O)c1ccc(O)cc1O (stereo not given) | 100
CN(C(=O)c1ccc2c(c1)CCCN2C(=O)c1ccc(O)cc1O)c1cccc(F)c1 | 100
C[C@@H]1CCc2ccccc2N1C(=O)c1cc(Cl)c(O)cc1O | 10000
Nc1ccc2c(c1)CCCN2C(=O)c1ccc(O)cc1O | 100
C[C@H]1CCc2cc(C(=O)N(C)Cc3cc4ccccc4[nH]3)ccc2N1C(=O)c1ccc(O)cc1O | 100
Cc1cc(S(=O)(=O)N2CCOCC2)cnc1-c1ccc2c(c1)CC[C@H](C)N2C(=O)c1ccc(O)cc1O | 10
CC1CCc2cc(C(=O)N(C)Cc3ccc(Cl)cc3)ccc2N1C(=O)c1cc(Cl)c(O)cc1O (stereo not given) | 100
CC1CCc2cc(C(=O)N(C)Cc3cccnc3)ccc2N1C(=O)c1ccc(O)cc1O (stereo not given) | 100

SMILES | IC50 [nM]
Cc1cc(S(=O)(=O)NCCCC(N)=O)cnc1-c1ccc2c(c1)CC[C@H](C)N2C(=O)c1ccc(O)cc1O | 10
C[C@@H]1CCc2cc(F)ccc2N1C(=O)c1cc(Cl)c(O)cc1O | 10000
Cc1cc(S(=O)(=O)N2CC(F)(F)C2)cnc1-c1ccc2c(c1)CC[C@H](C)N2C(=O)c1ccc(O)cc1O | 10
CC(=O)NCCNS(=O)(=O)c1cnc(-c2ccc3c(c2)CC[C@H](C)N3C(=O)c2ccc(O)cc2O)c(C)c1 | 10
C[C@H]1CCc2cc(F)ccc2N1C(=O)c1ccc(O)cc1O | 100
C[C@H]1CCc2cc(C(=O)N(C)CC(F)(F)F)ccc2N1C(=O)c1ccc(O)cc1O | 100
C[C@H]1CCc2ccccc2N1C(=O)c1cc(F)c(O)cc1O | 100
Cc1cc(S(=O)(=O)N2CCOCC2)cnc1-c1ccc2c(c1)CCC(c1cccnc1)N2C(=O)c1ccc(O)cc1O (stereo not given) | 10
Cc1cc(S(=O)(=O)NCc2ccccn2)cnc1-c1ccc2c(c1)CC[C@H](C)N2C(=O)c1ccc(O)cc1O | 10
CCc1cc(C(=O)N2c3ccc(F)cc3CCC2C)c(O)cc1O (stereo not given) | 10000
O=C(c1ccc(O)cc1O)N1c2ccccc2CCC1CNC(=O)C(F)(F)F (stereo not given) | 100
COC(=O)c1ccc2c(c1)CCCN2C(=O)c1ccc(O)cc1O | 1000
C[C@@H]1CCc2ccccc2N1C(=O)c1ccc(O)cc1O | 10000
CN(Cc1nc2ccccc2[nH]1)C(=O)c1ccc2c(c1)CCCN2C(=O)c1ccc(O)cc1O | 100
CC1CCc2cc(C(=O)N(C)CCc3ccccn3)ccc2N1C(=O)c1ccc(O)cc1O (stereo not given) | 100
C[C@H]1CCc2cc(F)ccc2N1C(=O)c1cc(Cl)c(O)cc1O | 100
O=C(c1ccc2c(c1)CCCN2C(=O)c1ccc(O)cc1O)N1CCC1 | 1000
COc1ccc2c(c1)CCCN2C(=O)c1ccc(O)cc1O | 100
CC(C)c1ccc2c(c1)CCCN2C(=O)c1ccc(O)cc1O | 100
CC1CCc2cc(F)ccc2N1C(=O)c1cc(Cl)c(O)cc1O (stereo not given) | 100
O=C(c1ccc(O)cc1O)N1CCCc2cc(OC(F)(F)F)ccc21 | 1000
Cc1ccc2c(c1)CCCN2C(=O)c1ccc(O)cc1O | 100
C[C@H]1CCc2cc(C(=O)O)ccc2N1C(=O)c1ccc(O)cc1O | 10000
CN(CCN)C(=O)c1ccc2c(c1)CCCN2C(=O)c1ccc(O)cc1O | 1000

SMILES | IC50 [nM]
C[C@H]1CCc2cc(C(=O)N(C)Cc3ccc[n+](C)c3)ccc2N1C(=O)c1ccc(O)cc1O | 100
CC1CCc2cc(C(=O)N3Cc4ccccc4C3)ccc2N1C(=O)c1ccc(O)cc1O (stereo not given) | 100
COc1ccc(CN(C)C(=O)c2ccc3c(c2)CCC(C)N3C(=O)c2ccc(O)cc2O)cc1OC (stereo not given) | 100
Cc1cc(S(=O)(=O)N2CCN(C)CC2)cnc1-c1ccc2c(c1)CC[C@H](C)N2C(=O)c1ccc(O)cc1O | 10
CCOC(=O)CN(C)C(=O)c1ccc2c(c1)CCCN2C(=O)c1ccc(O)cc1O | 1000
CC(c1cc2ccccc2o1)N(C)C(=O)c1ccc2c(c1)CCC(C)N2C(=O)c1ccc(O)cc1O (stereo not given) | 100
COc1ccc(CN(C)C(=O)c2ccc3c(c2)CCC(C)N3C(=O)c2ccc(O)cc2O)cc1 (stereo not given) | 10
O=C(c1ccc(O)cc1O)N1CCCc2cc(OCc3ccccc3)ccc21 | 10000
COc1ccccc1CN(C)C(=O)c1ccc2c(c1)CCC(C)N2C(=O)c1ccc(O)cc1O (stereo not given) | 100
CN(CCNC(=O)OC(C)(C)C)C(=O)c1ccc2c(c1)CCCN2C(=O)c1ccc(O)cc1O | 1000
CC1CCc2cc(C(=O)N(C)Cc3cc4ccccc4[nH]3)ccc2N1C(=O)c1ccc(O)cc1O (stereo not given) | 100
C[C@H]1CCc2cc(C(=O)N(C)Cc3ccnc4ccccc34)ccc2N1C(=O)c1ccc(O)cc1O | 10
C[C@H]1CCc2cc(C(=O)N(C)C)ccc2N1C(=O)c1ccc(O)cc1O | 100
CS(=O)(=O)NCC1CCc2ccccc2N1C(=O)c1ccc(O)cc1O (stereo not given) | 100
O=C(O)c1ccc2c(c1)CCCN2C(=O)c1ccc(O)cc1O | 10000
C[C@H]1CCc2cc(C(=O)N(C)Cc3ccc(Cl)cc3)ccc2N1C(=O)c1ccc(O)cc1O | 100
Cc1cncnc1-c1ccc2c(c1)CCC(c1cccnc1)N2C(=O)c1ccc(O)cc1O (stereo not given) | 10
CN(CC(F)(F)F)C(=O)c1ccc2c(c1)CCCN2C(=O)c1ccc(O)cc1O | 1000
O=C(c1ccc(O)cc1O)N1c2ccc(-c3ncnc4[nH]ccc34)cc2CCC1c1cccnc1 (stereo not given) | 10
CC(=O)N1CCN(S(=O)(=O)c2cnc(-c3ccc4c(c3)CC[C@H](C)N4C(=O)c3ccc(O)cc3O)c(C)c2)CC1 | 10
CC1CCc2cc(C(=O)N(C)Cc3ccc(Cl)c(Cl)c3)ccc2N1C(=O)c1ccc(O)cc1O (stereo not given) | 100
Cc1cnc(Cl)nc1-c1ccc2c(c1)CCC(c1cccnc1)N2C(=O)c1ccc(O)cc1O (stereo not given) | 10
CC1CCc2cc(C(=O)N(C)Cc3cnn(C)c3)ccc2N1C(=O)c1ccc(O)cc1O (stereo not given) | 100
O=C(c1ccc(O)cc1O)N1c2ccc(-c3nc4ccc(Cl)cc4cc3CO)cc2CCC1c1cccnc1 (stereo not given) | 100

SMILES | IC50 [nM]
C[C@@H]1CCc2cc(F)ccc2N1C(=O)c1ccc(O)cc1O | 1000
O=C(c1ccc2c(c1)CCCN2C(=O)c1ccc(O)cc1O)N1CCc2ccccc21 | 100
CC1CCc2cc(C(=O)N(C)C)ccc2N1C(=O)c1ccc(O)cc1O (stereo not given) | 100
C[C@H]1CCc2cc(C(=O)N(C)Cc3cccnc3)ccc2N1C(=O)c1ccc(O)cc1O | 100
CC1CCc2cc(C(=O)N(C)CC(F)(F)F)ccc2N1C(=O)c1ccc(O)cc1O (stereo not given) | 100
CC1CCc2cc(C(=O)N(C)Cc3nc4ccccc4s3)ccc2N1C(=O)c1ccc(O)cc1O (stereo not given) | 100
Cc1cc(S(=O)(=O)N2CCC(F)(F)CC2)cnc1-c1ccc2c(c1)CC[C@H](C)N2C(=O)c1ccc(O)cc1O | 100
O=C(c1ccc2c(c1)CCCN2C(=O)c1ccc(O)cc1O)N1CCCCC1 | 100
C[C@H]1CCc2ccccc2N1C(=O)c1ccc(O)cc1O | 100
O=C(c1ccc(O)cc1O)N1CCCc2cc(Br)ccc21 | 1000
C[C@H]1CCc2ccccc2N1C(=O)c1cc(Cl)c(O)cc1O | 100
O=C(c1ccc(O)cc1O)N1c2ccccc2CC[C@@H]1c1cccnc1 | 100
C[C@@H]1CCc2cc(C(=O)N(C)C)ccc2N1C(=O)c1ccc(O)cc1O | 10000
CC1CCc2cc(C(=O)N(C)Cc3nc4ccccc4[nH]3)ccc2N1C(=O)c1ccc(O)cc1O (stereo not given) | 100
O=C(c1ccc2c(c1)CCCN2C(=O)c1ccc(O)cc1O)N1Cc2ccccc2C1 | 1000
CC1CCc2cc(C(=O)N3CCCCC3)ccc2N1C(=O)c1ccc(O)cc1O (stereo not given) | 100
CCc1nccnc1-c1ccc2c(c1)CCC(c1cccnc1)N2C(=O)c1ccc(O)cc1O (stereo not given) | 10
CN(Cc1ccccn1)C(=O)c1ccc2c(c1)CCCN2C(=O)c1ccc(O)cc1O | 1000
CC1CCc2cc(C(=O)N(C)Cc3cc4cc(F)ccc4[nH]3)ccc2N1C(=O)c1ccc(O)cc1O (stereo not given) | 100
CC1CCc2ccccc2N1C(=O)c1ccc(O)cc1O (stereo not given) | 100
C[C@H]1CCc2cc(C(=O)N(C)Cc3cccc4c3ccc[n+]4C)ccc2N1C(=O)c1ccc(O)cc1O | 100
CN(CC(=O)O)C(=O)c1ccc2c(c1)CCCN2C(=O)c1ccc(O)cc1O | 1000
Cc1cc2ccc(F)cc2nc1-c1ccc2c(c1)CCC(c1cccnc1)N2C(=O)c1ccc(O)cc1O (stereo not given) | 10
